This is an account of results in publication PMC8398714, “Synthesis and Evaluation of Biological Activities of Bis(spiropyrazolone)cyclopropanes: A Potential Application against Leishmaniasis” (Molecules, 2021).

Experiment [1] relates to RKO. The experiment can be described thus: MTS cell viability assay on RKO cells. The class given is cell-based. Particulars: Homo sapiens, 48 h. Here is the method:
(§1) Five tumor human cancer cell lines—cerebral astrocytoma (D-384), grade IV prostatic adenocarcinoma (PC-3), mammary adenocarcinoma (MCF-7), human colon carcinoma (RKO) and lung carcinoma (A-549)—along with one immortalized hamster cell line (CHO K-1) were used. The cells PC-3, MCF-7 and RKO were cultured in RPMI-1640, D-384 on DMEM and CHO K-1 on HAM F-12 medium supplemented with 10% fetal bovine serum (FBS, Invitrogen, Karlsruhe, Germany), 1% antibiotic-antimitotic solution (100 units/mL penicillin G, 100 µg/mL streptomycin, and 0.25 µg/mL amphotericin B, Gibco, Grand Island, NY, USA), and 1% L-glutamine (2 mM, Gibco). The cells were incubated at 37 °C in a 5% CO2 atmosphere. The viable cells were counted using the trypan blue exclusion method in a hemocytometer.
(§2) The MTS (5-[3-(carboxymethoxy)phenyl]-3-(4,5-dimethyl-2-thiazolyl)-2-(4-sulfo- phenyl)-2H-tetrazolium inner salt) cell viability assay was used to assess the inhibitory effects of the extracts on the survival of human cancer cell lines. A total of 3–5 × 10^3 cells/well were seeded into 96-well plates and were allowed to adhere for 24 h. […] Each concentration/assay was performed three times. Dimethyl sulfoxide (DMSO) was used as a negative control at a final concentration of 0.1% v/v, and 1 µM Doxorubicin was used as a positive control. The cells were incubated with the treatments for 48 h, after which 20 µL MTS (5 mg/mL, Aqueous One Solution Reagent, Gibco) was added and further incubated for 4 h at 37 °C. The absorbance was measured at 570 nm. The data obtained with cells treated with DMSO were defined to represent 100% viability.
In general terms: Tetrazolium dyes change colour on reduction, which living cells bring about.

Experiment [2] relates to PC-3. The experiment in a line: MTS cell viability assay on PC-3 cells. It is filed as cell-based. Particulars: Homo sapiens, 48 h. Here is the method: as §1, §2
Experiment [3] is described as follows: MTS cell viability assay on A-549 cells. It is filed as cell-based. Particulars: Homo sapiens; 48 h, 15-150 µM, mean ± SEM of triplicates. How it is done: as §1, §2
The subject of experiment [4] is A-549. The experiment in a line: MTS cell viability assay on A-549 cells. The class given is cell-based. The following applies: Homo sapiens, A549; 100 µM, 48 h; Dox 1 µM; mean ± SEM; NA = no activity; read-out: Percentage (%) of inhibition, A-549. Here is the method:
as §1, §2

The test system of experiment [5] is MCF-7. The experiment in a line: MTS cell viability assay on MCF-7 cells. Particulars: Homo sapiens, MCF7; 100 µM, 48 h; Dox 1 µM; mean ± SEM; NA = no activity; read-out: Percentage (%) of inhibition, MCF-7. The class given is cell-based. Here is the method: as §1, §2
Experiment [6] relates to HeLa. The experiment can be described thus: MTS cell viability assay on HeLa cells. The class given is cell-based. The following applies: Homo sapiens, 100 µM, 48 h, Dox 1 µM, mean ± SEM, NA = no activity, read-out: Percentage (%) of inhibition, HeLa.
In experiment [7] the test system is CHO-K1. The experiment can be described thus: MTS cell viability assay on immortalized CHO-K1 cells. The class given is cell-based, hamster. Particulars: 100 µM, 48 h, Dox 1 µM, mean ± SEM, NA = no activity, read-out: Percentage (%) of inhibition, CHO-K1. Here is the method: as §1, §2
[8] abbreviates: 15-150 µM, mean ± SEM of triplicates.

In the case of `COc1cccc2c1C(=O)c1c(O)c3c(c(O)c1C2=O)C[C@@](O)(C(=O)CO)C[C@@H]3O[C@H]1C[C@H](N)[C@H](O)[C@H](C)O1` [Dox, Doxorubicin, reference compound], the inhibition at 1 µM in experiment [1] (100 µM, Dox 1 µM, mean ± SEM, NA = no activity, read-out: Percentage (%) of inhibition, RKO) was determined as 85.6 ± 1.06%; in experiment [2] (100 µM, Dox 1 µM, mean ± SEM, NA = no activity, read-out: Percentage (%) of inhibition, PC-3), 88 ± 1.65%; in experiment [4] it was 9.16 ± 2.16%; in experiment [5], 46.2 ± 7.77%; in experiment [6], 9.18 ± 9.55%; in experiment [7], 2.62 ± 1.42%. In addition, the IC50 was 0.51 ± 0.01 µM in experiment [1] (setting [8]), 0.65 ± 0.08 µM in experiment [2] (setting [8]) and 1.23 ± 0.1 µM in experiment [3].

The term inhibition denotes the percentage by which the read-out fell short of the control. For orientation: IC50 means the concentration that inhibits the measured activity by half. A high value points to weaker potency.
